These results are taken from patent publication US7928134B2, “5-aryl-4,5-dihydro-(1H)-pyrazolines as cannabinoid CB1 receptor agonists” (Solvay Pharmaceuticals B.V., priority 2007, dated 2011).

The target of assay [1] is T1, human cannabinoid CB2 receptor (Homo sapiens, UniProt P34972).
T1 construct: expressed in transfected cells; host or cells: CHO cells, membrane preparations
The assay is described as follows: In vitro affinity for cannabinoid-CB2 receptors ([3H]CP-55,940 radioligand binding). As to conditions: membranes of CHO cells stably transfected with human CB2, read-out: receptor binding Human CB2 affinity pKi (converted). As for the experimental part:
In Vitro Affinity for Cannabinoid-CB2 Receptors
The affinity of the compounds of the invention for cannabinoid CB2 receptors can be determined using membrane preparations of CHO cells in which the human cannabinoid CB2 receptor is stably transfected in conjunction with [^3H]CP-55,940 as radioligand. After incubation of a freshly prepared cell membrane preparation with the [^3H]-ligand, with or without addition of one or more compounds of the invention, separation of bound and free ligand is performed by filtration over glassfiber filters. Radioactivity on the filter is measured by liquid scintillation counting.

In a further assay the target is T2, human CB1 receptor (Homo sapiens, UniProt P21554).
T2 construct: expressed in transfected cells; host or cells: CHO cells
T2 sequence (P21554 whole entry): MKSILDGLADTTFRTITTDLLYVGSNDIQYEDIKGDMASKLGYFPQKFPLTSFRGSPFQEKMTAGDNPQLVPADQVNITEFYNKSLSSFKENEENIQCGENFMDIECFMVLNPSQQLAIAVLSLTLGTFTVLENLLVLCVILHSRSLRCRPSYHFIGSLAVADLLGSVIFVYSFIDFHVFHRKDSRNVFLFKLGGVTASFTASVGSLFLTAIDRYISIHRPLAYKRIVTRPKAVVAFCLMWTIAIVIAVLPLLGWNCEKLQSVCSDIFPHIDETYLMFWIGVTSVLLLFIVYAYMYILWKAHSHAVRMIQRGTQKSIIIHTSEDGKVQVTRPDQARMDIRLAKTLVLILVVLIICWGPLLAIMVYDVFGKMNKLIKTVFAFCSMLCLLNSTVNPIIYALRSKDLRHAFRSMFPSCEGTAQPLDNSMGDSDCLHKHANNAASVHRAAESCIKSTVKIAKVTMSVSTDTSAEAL
Nature of the assay: In vitro cannabinoid-CB1 receptor (ant)agonism ([3H]-arachidonic acid release in CHO cells). It counts as cell-based. As to conditions: human CB1 receptor cloned in CHO cells; for EC50: read-out: Functional CB1 assays Human CB1 agonism pEC50 (converted). As for the experimental part: In Vitro Cannabinoid-CB1 Receptor (Ant)Agonism
In vitro CB1 receptor antagonism/agonism can be assessed with the human CB1 receptor cloned in CHO cells. CHO cells are grown in a Dulbecco's Modified Eagle's medium (DMEM) culture medium, supplemented with 10% heat-inactivated fetal calf serum. Medium is aspirated and replaced by DMEM, without fetal calf serum, but containing [^3H]-arachidonic acid and incubated overnight in a cell culture stove (5% CO2/95% air; 37° C.; water-saturated atmosphere). During this period [^3H]-arachidonic acid is incorporated in membrane phospholipids. On the test day, medium is aspirated and cells are washed three times using 0.5 ml DMEM, containing 0.2% bovine serum albumin (BSA). CB1 agonist stimulation leads to activation of PLA2 followed by release of [^3H]-arachidonic acid into the medium. This CB1 agonist-induced release is concentration-dependently antagonized by CB1 receptor antagonists, such as for example rimonabant.

The target of assay [2] is T3, human cannabinoid CB1 receptor (Homo sapiens, UniProt P21554).
T3 construct: expressed in transfected cells; host or cells: Chinese hamster ovary (CHO) cells, membrane preparations
T3 sequence (P21554 whole entry): as above
Nature of the assay: In vitro affinity for cannabinoid-CB1 receptors ([3H]CP-55,940 radioligand binding). As to conditions: membranes of CHO cells stably transfected with human CB1, read-out: receptor binding Human CB1 affinity pKi (converted). As for the experimental part:
In Vitro Affinity for Cannabinoid-CB1 Receptors
The affinity of the compounds of the invention for cannabinoid CB1 receptors can be determined using membrane preparations of Chinese hamster ovary (CHO) cells in which the human cannabinoid CB1 receptor is stably transfected in conjunction with [^3H]CP-55,940 as radioligand. After incubation of a freshly prepared cell membrane preparation with the [^3H]-ligand, with or without addition of one or more compounds of the invention, separation of bound and free ligand is performed by filtration over glassfiber filters. Radioactivity on the filter is measured by liquid scintillation counting.

T1 sequence (P34972 whole entry): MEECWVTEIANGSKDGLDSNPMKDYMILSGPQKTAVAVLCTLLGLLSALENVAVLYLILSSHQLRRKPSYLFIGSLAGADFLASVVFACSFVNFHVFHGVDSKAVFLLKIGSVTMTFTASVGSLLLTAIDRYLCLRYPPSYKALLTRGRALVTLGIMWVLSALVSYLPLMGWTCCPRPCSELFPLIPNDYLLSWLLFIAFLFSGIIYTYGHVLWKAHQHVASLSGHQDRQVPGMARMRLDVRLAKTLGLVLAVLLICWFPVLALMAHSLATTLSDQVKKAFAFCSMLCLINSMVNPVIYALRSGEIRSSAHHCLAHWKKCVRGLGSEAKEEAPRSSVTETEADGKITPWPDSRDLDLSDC

In the case of `CCCCCN1N=C(C(=O)NC(C)c2ccccc2)CC1c1ccccc1` (mixture of isomers) [Compound 14, N-(1-Phenyl-ethyl)-1-(n-pentyl)-5-phenyl-4,5-dihydro-(1H)-pyrazole-3-carboxamide], the Ki in assay [1] is 251 nM; in assay [2], 31.6 nM. Moreover, the EC50 at human CB1 receptor is 501 nM.

In the case of `CC(C)CN1N=C(C(=O)N[C@H]2C[C@H]3CC[C@]2(C)C3(C)C)CC1c1ccccc1` (stereo partly drawn) [Compound 110, N-[endo-(1R,2S,4R)-1,7,7-trimethylbicyclo[2.2.1]hept-2-yl]-1-isobutyl-5-phenyl-4,5-dihydro-(1H)-pyrazole-3-carboxamide], the Ki in assay [1] and in assay [2] was 50.1 nM throughout. For the same compound, the EC50 on human CB1 receptor is 316 nM.

As to `CCCCCN1N=C(C(=O)NC2C3CC4CC(C3)CC2C4)CC1c1ccccc1` (stereo not drawn) [Compound 1, N-(Adamant-2-yl)-1-(n-pentyl)-5-phenyl-4,5-dihydro-(1H)-pyrazole-3-carboxamide], the Ki in assay [1] was 5.01 nM; in assay [2] it was 7.94 nM. Besides, the “Functional CB1 assays Human CB1 agonism pEC50” value on human CB1 receptor worked out at 8.1.

With `CCCCCN1N=C(C(=O)NC23CC4CC(CC(C4)C2)C3)CC1c1ccccc1` (stereo not drawn) [Compound 27, N-(Adamantyl)-1-(n-pentyl)-5-phenyl-4,5-dihydro-(1H)-pyrazole-3-carboxamide], the Ki in assay [1] is 7.94 nM; in assay [2], 15.8 nM. Also, at human CB1 receptor, the EC50 was 12.6 nM.

Turning to `CCCCN1N=C(C(=O)N[C@H]2C[C@H]3CC[C@]2(C)C3(C)C)CC1c1ccccc1` (stereo partly drawn) [Compound 103, N-[endo-(1R,2S,4R)-1,7,7-trimethylbicyclo[2.2.1]hept-2-yl]-1-(n-butyl)-5-phenyl-4,5-dihydro-(1H)-pyrazole-3-carboxamide], the Ki in assay [1] was 25.1 nM; in assay [2], 79.4 nM. Moreover, the EC50 at human CB1 receptor was 31.6 nM.

On to `CCCCCN1N=C(C(=O)NCc2cccc(C(F)(F)F)c2)CC1c1ccccc1` (racemic) [Compound 22], for which the Ki in assay [1] was 316 nM; in assay [2] it was 63.1 nM. Moreover, at human CB1 receptor, the EC50 is 79.4 nM.

Consider `CCCCCN1N=C(C(=O)NC(C)(C)c2ccc(F)cc2)CC1c1ccccc1` (stereo not drawn) [Compound 105, N-(1-(4-fluorophenyl)-1-methyl-ethyl)-1-(n-pentyl)-5-phenyl-4,5-dihydro-(1H)-pyrazole-3-carboxamide], for which the Ki is 126 nM in assay [1] and 15.8 nM in assay [2]. For the same compound, at human CB1 receptor, the EC50 was 1.58 nM.

For `CC(C)(NC(=O)C1=NN(CC2CCCCC2)C(c2ccccc2)C1)c1ccc(F)cc1` (stereo not drawn) [Compound 108, N-[1-(4-fluorophenyl)-1-methyl-ethyl]-1-cyclohexylmethyl-5-phenyl-4,5-dihydro-(1H)-pyrazole-3-carboxamide], the figures for the Ki in assay [1] and in assay [2] were 31.6 nM and 25.1 nM, respectively. In addition, at human CB1 receptor, the EC50 is 15.8 nM.

As for `CCCCCN1N=C(C(=O)NC(C)(C)c2ccccc2)CC1c1ccccn1` (stereo not drawn) [Compound 32, N-(1-Phenyl-1-methyl-ethyl)-1-(n-pentyl)-5-(pyrid-2-yl)-4,5-dihydro-(1H)-pyrazole-3-carboxamide], the Ki was 10 nM in assay [1] and 7.94 nM in assay [2]. The EC50 on human CB1 receptor is 39.8 nM.

Turning to `CCCCCN1N=C(C(=O)Nc2cccc3ccccc23)CC1c1ccccc1` (stereo not drawn) [Compound 4, N-(Napht-1-yl)-1-(n-pentyl)-5-phenyl-4,5-dihydro-(1H)-pyrazole-3-carboxamide], the Ki in assay [1] was 79.4 nM; in assay [2] it was 31.6 nM. Besides, the EC50 at human CB1 receptor was 39.8 nM.

In the case of `CCCCCN1N=C(C(=O)NC2CC3CCC2C3)CC1c1ccccc1` (stereo not drawn) [Compound 12, N-(Exo-bicyclo[2.2.1]hept-2-yl)-1-(n-pentyl)-5-phenyl-4,5-dihydro-(1H)-pyrazole-3-carboxamide], the Ki in assay [1] is 39.8 nM; in assay [2] it was 79.4 nM. Further, on human CB1 receptor, the EC50 was 39.8 nM.

Turning to `CCCCN1N=C(C(=O)NC(C)(C)c2ccccc2)[C@@H](C)[C@@H]1c1ccccc1` (relative stereo) [Compound 37, N-(1-Phenyl-1-methyl-ethyl)-1-(n-butyl)-trans-4-methyl-5-phenyl-4,5-dihydro-(1H)-pyrazole-3-carboxamide], the Ki was 100 nM in assay [1] and 15.8 nM in assay [2]. The EC50 at human CB1 receptor was 7.94 nM.

`CCCCCN1N=C(C(=O)NC(C)(C)c2ccccc2)CC1c1ccccc1` (stereo not drawn) [Compound 28, N-(1-Phenyl-1-methyl-ethyl)-1-(n-pentyl)-5-phenyl-4,5-dihydro-(1H)-pyrazole-3-carboxamide]: the Ki was 100 nM in assay [1] and 6.31 nM in assay [2]. Further, the EC50 at human CB1 receptor is 7.94 nM.

For `CCCCCN1N=C(C(=O)N[C@H]2C[C@H]3CC[C@]2(C)C3(C)C)CC1c1ccccc1F` (stereo partly drawn) [Compound 101, N-[endo-(1R,2S,4R)-1,7,7-trimethylbicyclo[2.2.1]hept-2-yl]-1-(n-pentyl)-5-(2-fluorophenyl)-4,5-dihydro-(1H)-pyrazole-3-carboxamide], the figures for the Ki in assay [1] and in assay [2] were 7.94 nM and 6.31 nM, respectively. In addition, the EC50 on human CB1 receptor was 6.31 nM.

In the case of `CCCCCN1N=C(C(=O)N[C@H]2C[C@H]3CC[C@]2(C)C3(C)C)CC1c1ccccc1` (stereo partly drawn) [Compound 104, N-[endo-(1R,2S,4R)-1,7,7-trimethylbicyclo[2.2.1]hept-2-yl]-1-(n-pentyl)-5-phenyl-4,5-dihydro-(1H)-pyrazole-3-carboxamide], the Ki in assay [1] was 25.1 nM; in assay [2], 6.31 nM. Moreover, the EC50 on human CB1 receptor is 3.16 nM.

For the compound `CCCCCN1N=C(C(=O)NCc2cccnc2)CC1c1ccccc1` (stereo not drawn) [Compound 7, N-(Pyridin-3-ylmethyl)-1-(n-pentyl)-5-phenyl-4,5-dihydro-(1H)-pyrazole-3-carboxamide], the Ki was 501 nM in assay [1] and 126 nM in assay [2]. Also, the EC50 on human CB1 receptor was 631 nM.

In the case of `CCCCN1N=C(C(=O)NC(C)(C)c2ccccc2)CC1c1ccccc1` (stereo not drawn) [Compound 102, N-(1-phenyl-1-methyl-ethyl)-1-(n-butyl)-5-phenyl-4,5-dihydro-(1H)-pyrazole-3-carboxamide], the Ki in assay [1] and in assay [2] was 39.8 nM each time. On human CB1 receptor, the EC50 is 100 nM.
